Drawing on the NIST ThermoML archive (doi:10.1021/je0301951), this text covers binary diffusion coefficient for two compounds.

A short description of this data set: wn = mass fraction of the nth substance listed. As to conditions: Liquid, w2 = 1.

For `O=C=O` [carbon dioxide] + O, the binary diffusion coefficient runs as follows: (293 K) 1.71e-09 m2/s; (298 K) 1.9e-09 m2/s; (303 K) 2.13e-09 m2/s; (308 K) 2.47e-09 m2/s; (313 K) 2.86e-09 m2/s.
For `[N-]=[N+]=O` [nitrous oxide] + O, in that order: 1.54e-09 m2/s, 1.8e-09 m2/s, 1.98e-09 m2/s, 2.29e-09 m2/s and 2.58e-09 m2/s.
